Entries after “also recorded” stand apart in the source; their conditions may differ.
Legend:
Swiss 3T3 cells = assay: MEKKCOOH-induced cell death after nuclear microinjection of expression plasmids; format: cell-based
Protocol: Swiss 3T3 and REF52 cells were plated on acid-washed glass cover slips in Dulbecco's Modified Eagle's Medium (DMEM) and 10% bovine calf serum (BCS) or newborn calf serum (NCS). Cells were placed in DMEM/0.1% calf serum for overnight incubation prior to microinjection and used for injection at 50-70% confluence. Injections were performed with an Eppendorf automated microinjection system with needles pulled from glass capillaries on a vertical pipette puller (Kopf, Tujunga, Calif.). Cells were injected with pCMVβ-gal in the presence or absence of pCMV5MEKKCOOH or pCMV5BxBRaf at 20-100 ng/μl for each expression plasmid in 100 mM KC1, 5 mM NaPO4, pH 7.3. Following injection cells were placed in 1% NCS for 12-18 hr (Swiss 3T3) or 42 hr (REF52) prior to fixation with paraformaldehyde and staining. Similar results were obtained when cells were placed in 10% NCS after microinjection. Propidium iodide ([…]) was used to stain DNA. X-Gal reactions were performed for six hr.
Swiss 3T3 cells were microinjected with 100 ng/μl pCMVβ-gal and 20 ng/μl pCMV5MEKKCOOH. To label free DNA ends fixed and rehydrated cells were incubated with terminal deoxytransferase (TDT) and 10 nM biotin-dUTP following the manufacturer's instructions (Boehringer-Mannheim). Cells were stained with FITC-streptavidin to label DNA fragments. β-gal was detected using rabbit anti-p-gal antibody (Cappel Labs) and a rhodamine-labeled goat anti-rabbit antibody (Cappel Labs).
Seventeen hours after injection cells were fixed and stained for, β-galactosidase activity with X-Gal. Injected cells attached to the coverslip were scored as positive for cell death when they were highly condensed, small round cells.

98 kD PC12 cell MEKK = assay: MEKK immunoprecipitate kinase assay from PC12 cells with kinase inactive MEK-1; format: cell-based; settings: for MEKK activity after stimulation (in words): serum starved PC12 cells, 5 minutes
Protocol: Reactions were stopped by the addition of 2×SDS sample buffer (20 μl). The samples were boiled for 3 minutes and subjected to SDS-PAGE and autoradiography. Raf-B was immunoprecipitated from the same untreated and treated PC12 cell lysates as above with an antiserum to a COOH-terminal peptide of Raf-B (Santa Cruz Biotechnology, Inc.) and assayed similarly. Raf-1 was immunoprecipitated with an antiserum to the 12 COOH-terminal amino acids of Raf-1 (Santa Cruz Biotechnology, Inc.).
Data represent the relative magnitude of the response for each timepoint as quantitated by phosphorimager analysis of radioactive gels from a typical experiment.
Expression of N^17Ras was induced in PC12 clones stably transfected with the N^17Ras gene by the addition of dexamethasone to the starvation media. […] PC12 cell clones stably transfected with the N^17Ras gene are less responsive to EGF-mediated activation of MEKK activity than are wild type PC12 cells. […] MEKK activity in immunoprecipitates or column fractions was dissociable from that of EGF-stimulated c-Raf-1 and Raf-B activities.
To determine whether the growth factor-mediated activation of 98 kD PC12 cell MEKK was inhibited by PKA, forskolin was used to elevate intracellular cAMP and activate PKA. […] Raf-B activity was also assayed from the same cell lysates to test whether its regulation differed from that of MEKK. Raf-B was immunoprecipitated from the same cell lysates as described above and assayed for its ability to phosphorylate MEK-1 as described above.

GST-Ras^V12 = assay: Direct binding of purified MEKKCOOH-His to GST-Ras^V12, read by phosphorylation of kinase inactive MEK1; settings: 100 μM peptide, pre-incubation 1 hr at 4° C.
Text: A construct encoding the kinase domain of a Rat MEKK1 cDNA (95% identical to mouse MEKK1) with a N-terminal hexahistidine tag (referred to herein as MEKKCOOH-His; provided by Dr. Melanie Cobb, Department of Pharmacology, University of Texas Southwestern Medical School, Dallas, Tex.) was expressed in bacteria and soluble active enzyme was purified on Ni2+-NTA agarose according to the method generally described in Gardner et al. (Methods of Enzymology 238:258-270, 1994) Purified recombinant MEKKCOOH-His was incubated with either GST or GST-Ras^V12 in PAN buffer (10 mM PIPES [pH 7.0], 100 mM NaCl, 0.2 U/ml aprotinin) for 1 hr at 4° C. The agarose beads were pelleted and washed 3 times in PAN buffer. […] To test the direct interaction of MEKK1 with the effector domain of Ras, samples were prepared by pre-incubating the agarose beads with either 100 μM of Ras peptide consisting of residues 17-42 of H-Ras or 100 μM of Ras control peptide ([D-Arg^1,D-Phe^5,DTrp^7,9,Leu^11] substance P peptide for 1 hr at 4° C. prior to addition of the MEK1 substrate. A control reaction containing wild-type MEKK1 which autophosphorylates, served as a marker for the MEKK1 substrate. Reactions were terminated by addition of 5× Laemmlei SDS sample buffer, boiled and resolved by SDS-PAGE.

JNK = JNK solid state kinase assay (GST-Jun) in L929 cells; format: cell-based, murine; settings: L929 cells
Protocol: (§1) In panel A cells were treated for 10 minutes with the indicated concentration of TNFα. JNK activation was measured using a solid phase kinase assay resulting in phosphorylation of GST-Jun. In […] the time course of MAPK activation is shown. MAPK was isolated from cell lysates on DEAE sephacel columns and MAPK activation was measured by phosphorylation of the EGFR peptide substrate. Panel C depicts the concentration curve of MAPK activation by TNFα. Cells were treated with the indicated concentration of TNFα and MAPK was assayed.
(§2) Cell lines and culture. L929 cells (ATCC CCL1 were maintained in Dulbecco's modified Eagle's medium with 5% newborn calf serum and 5% bovine calf serum (BCS) supplemented with 100 ug/ml streptomycin and 100 U/ml penicillin. The cells were grown in 10 cm dishes at 37° C. in 7.5% CO2. Cells were made quiescent where indicated by incubation in Dulbecco's modified Eagle's medium and 0.1% bovine serum albumin for 24 h. Recombinant murine TNFα and recombinant human bFGF (147aa) were from R&D Systems, Minneapolis, Minn. Cells were pretreated where indicated with the MEK-1 inhibitor PD#098059 (Parke-Davis Pharmaceutical Corp. Ann Arbor, Mich.) for 1 h at 37° C. Cells were stimulated by incubation with the indicated cytokine or growth factor for various times at 37° C. Stimulation was stopped by rinsing the plates twice with ice cold phosphate buffered saline (PBS) and lysing the cells in the appropriate lysis buffer. Cells were scraped from the plates and nuclei were pelleted for 10 min at 14,000 RPM in a microcentrifuge. JNK assay. JNK activity was measured using a solid state kinase assay in which glutathione S-transferase-c-Jun (1-79) (GST-JUN) cound to glutathione-Sepharose 4B beads was used to affinity purify JNK and then JNK activity was measured in an in vitro kinase assay using the sepharose bound GST-Jun as a substrate (Hibi, M., et al. (1993) Genes & Development 7:2135-2148). Stimulated or unstimulated cells were lysed in 0.5% Nonidet P-40, 20 mM HEPES pH 7.2, 100 mM NaCl, 2 mM dithiothreitol, 1 mM EDTA, 1.0 mM phenylmethylsulfonylfluoride, 1 μg/ml aprotinin and the nuclei pelleted. Lysates were normalized for protein content. JNK was affinity purified from 50-100 μg of cell lysate by the addition of 10 ul of GST-Jun sepharose slurry (2 μg GST-Jun). Binding to GST-Jun efficiently isolates the two major forms of JNK (p45 and p55) and under the conditions used JNK isolation was linear for 10-250 μg of cell lysate. The lysates were rotated at 4° C. for 1-3 h. Beads were washed twice in lysis buffer and then twice in PAN (10 mM PIPES, pH 7.0, 100 mM NaCl, 21 μg/ml aprotinin). Kinase reactions were carried out at 30° C. for 15 min in 20 mM Hepes pH 7.2, 20 mM β-glycerophosphate, 10 mM p-nitrophenyl phosphate, 10 mM MgCl2, 1 mM dithiothreitol, 50 μm sodium vanadate, 10 μCi γ^32P-ATP 4300 Ci/mmole. The kinase reaction was linear from 0-30 min. MAPK Assay MAPK activity was measured exactly as described previously (Gardner, A. M., et al. (1994) Meth. Enzymol. 238:258-270) with the exception that MonoQ FPLC fractionation was replaced by step elution from a DEAE-Sephacel column using 0.5 M NaCl in loading buffer. The eluate was assayed in triplicate using the epidermal growth factor receptor 662-681 peptide (EGFR662-681) as a selective substrate for MAPK activity (Heasley, L. E., et al. (1994) American Journal of Physiology (Renal Fluid Electrolyte Physiol. 36) 267:F366-F373). […] Cells were lysed by scraping in ice cold RIPA buffer (50 mM Tris-HCl, pH 7.2, 150 mM NaCl, 0.1% SDS, 0.5% sodium deoxycholate, 1.0% Triton X-100, 10 mM sodium pyrophosphate, 25 mM β-glycerophosphate, 2 mM sodium vanadate, 2.1 μg/ml aprotinin) and the nuclei were pelletted. […]

p42/p44 MAPK = assay: MAPK assay (DEAE-Sephacel, EGFR662-681 peptide) in L929 cells; format: cell-based, murine; settings: L929 cells
Protocol: as §1
FIG. 26 depicts the activation of MAPK by bFGF in L929 cells. Serum starved L929 cells were stimulated for 10 min with the indicated concentration of bFGF.
as §2

Raf-B = Raf-B immunoprecipitate kinase assay from PC12 cells with kinase inactive MEK-1; format: cell-based; settings: PC12 cells, EGF 30 ng/ml 5 minutes
L929 cells = assay: Propidium iodide staining of L929 clones with inducible N17 Ras or V12 Ras; format: cell-based, murine; settings: IPTG-induced expression
Protocol: Ras expression was induced with 5 mM IPTG for 10 hours and cells were subsequently treated with 5 ng/ml TNFα in the presence or absence of 0.5 ng/ml bFGF for 16 hours. Cells were fixed and stained with propidium iodide. The percentage of apoptotic cells was calculated. Solid bars represent cells induced with IPTG; hatched bars, induced with IPTG and treated with TNFα; checked bars, induced with IPTG and treated with TNFα and bFGF.
Cell lines and culture. […] JNK activity was measured using a solid state kinase assay in which glutathione S-transferase-c-Jun (1-79) (GST-JUN) cound to glutathione-Sepharose 4B beads was used to affinity purify JNK and then JNK activity was measured in an in vitro kinase assay using the sepharose bound GST-Jun as a substrate (Hibi, M., et al. (1993) Genes & Development 7:2135-2148). […] MAPK Assay MAPK activity was measured exactly as described previously (Gardner, A. M., et al. (1994) Meth. Enzymol. 238:258-270) with the exception that MonoQ FPLC fractionation was replaced by step elution from a DEAE-Sephacel column using 0.5 M NaCl in loading buffer. […]

[1] = 100 ng/μl plasmids, seventeen hours after injection, X-Gal

β-gal [reference compound] was tested, and the “Condensed Cells (number)” value (Swiss 3T3 cells; [1]) was 4, the “Condensed Cells (percent of cells injected)” value (Swiss 3T3 cells; [1]) was “(1%)” and the “injected cells with an altered morphology” value (Swiss 3T3 cells; 48-72 hours post-injection) was less than 1%.

In the case of NGF: Nerve growth factor, the “MEKK activity after stimulation (in words)” value (98 kD PC12 cell MEKK) is reported as “slight increase in MEKK activity; also recorded: also activated MEKK, although to a lesser degree than EGF”.

With “Ras effector peptide: Ras peptide consisting of residues 17-42 of H-Ras (SALTIQLIQNHFVDEYDPTIEDSYRK; UniProt P01112 17-42, looked up, fragment)” the “effect on binding of GST-Ras^V12(GTPγS) agarose to MEKKCOOH-His” value (GST-Ras^V12) was “prevented the binding”.

In the case of `CCCCCCCCCCCCCC(=O)O[C@@H]1[C@@H](C)[C@@]2(O)[C@@H](C=C(CO)C[C@]3(O)C(=O)C(C)=C[C@@H]23)[C@H]2C(C)(C)[C@]12OC(C)=O` [TPA, reference compound], the “MEKK activity after stimulation (in words)” value (98 kD PC12 cell MEKK) is reported as “also activated MEKK, although to a lesser degree than EGF”.

In the case of “N17 Ras: Dominant negative Ha-ras (Asn 17), inhibitory Ras [reference compound]”, the “effect on activation of MEKK by EGF” value (98 kD PC12 cell MEKK; PC12 cells, EGF 30 ng/ml 5 minutes) is reported as “inhibited the activation of MEKK by EGF”, the “effect on TNFα stimulation of JNK” value (JNK) is reported as “had no effect on TNF stimulation of JNK” and the “effect on bFGF stimulation of MAPK activity” value (p42/p44 MAPK) is reported as “significantly blunted bFGF stimulation of MAPK”. For the same compound, the “effect on activation of Raf-B by EGF” value (Raf-B) was “greatly reduced”, the “effect on TNFα induced apoptosis” value (L929 cells; 5 ng/ml TNFα) was “did not affect” and the “effect on ability of bFGF to protect against TNFα-mediated cell death” value (L929 cells; TNFα plus bFGF) was “markedly inhibit”.

In the case of “[D-Arg^1,D-Phe^5,D-Trp^7,9,Leu^11] substance P peptide [reference compound]”, the “effect on binding of GST-Ras^V12(GTPγS) agarose to MEKKCOOH-His” value (GST-Ras^V12) is reported as “able to bind”.
